# Tested on: 439559-082-T-J2-PDC spheroid viability
# Experiment: Anticancer human tumor 439559-082-T-J2-PDC patient-derived colon adenocarcinoma cell line growth inhibition [POLQ]
# Details: spheroids with HUVEC and MSC; for IC50: curve of first compound; for viability, T/C: stronger effect = lower value
# In short: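 PDC + HUVEC + MSC complex spheroids; POLQ inhibitors ± partner drugs; top conc. at/near clinical Cmax, else 10 microM (SN-38 1 microM), half-log dilutions; 37 degrees C, 5% CO2.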
# [1] = second compound 0.0316 µM, first compound 0.0316 µM
# [2] = second compound 0.0316 µM, first compound 0.1 µM
# [3] = second compound 0.0316 µM, first compound 0.316 µM
# [4] = second compound 0.0316 µM, first compound 1 µM
# [5] = second compound 0.0316 µM, first compound 3.16 µM
# [6] = second compound 0.0316 µM, first compound 10 µM
# [7] = second compound 0.1 µM, first compound 0.0316 µM
# [8] = second compound 0.1 µM, first compound 0.1 µM
# [9] = second compound 0.1 µM, first compound 0.316 µM
# [10] = second compound 0.1 µM, first compound 1 µM
# [11] = second compound 0.1 µM, first compound 3.16 µM
# [12] = second compound 0.1 µM, first compound 10 µM
# [13] = second compound 0.316 µM, first compound 0.0316 µM
# [14] = second compound 0.316 µM, first compound 0.1 µM
# [15] = second compound 0.316 µM, first compound 0.316 µM
# [16] = second compound 0.316 µM, first compound 1 µM
# [17] = second compound 0.316 µM, first compound 3.16 µM
# [18] = second compound 0.316 µM, first compound 10 µM
# [19] = second compound 1 µM, first compound 0.0316 µM
# [20] = second compound 1 µM, first compound 0.1 µM
# [21] = second compound 1 µM, first compound 0.316 µM
# [22] = second compound 1 µM, first compound 1 µM
# [23] = second compound 1 µM, first compound 3.16 µM
# [24] = second compound 1 µM, first compound 10 µM
# [25] = second compound 3.16 µM, first compound 0.0316 µM
# [26] = second compound 3.16 µM, first compound 0.1 µM
# [27] = second compound 3.16 µM, first compound 0.316 µM
# [28] = second compound 3.16 µM, first compound 1 µM
# [29] = second compound 3.16 µM, first compound 3.16 µM
# [30] = second compound 3.16 µM, first compound 10 µM
# [31] = second compound 10 µM, first compound 0.0316 µM
# [32] = second compound 10 µM, first compound 0.1 µM
# [33] = second compound 10 µM, first compound 0.316 µM
# [34] = second compound 10 µM, first compound 1 µM
# [35] = second compound 10 µM, first compound 3.16 µM
# [36] = second compound 10 µM, first compound 10 µM
# 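Also: spheroids exposed to compounds for seven days before readout.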
# 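For viability, T/C in this document: 100% = DMSO vehicle control viability.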
smiles,measurement,setting,value
C#Cc1c(F)ccc2cc(O)cc(-c3ncc4c(N5CC6CCC(C5)N6)nc(OCC56CCCN5CC(F)C6)nc4c3F)c12 (stereo unspecified) + COC1C(OC(N)=O)C(O)C(Oc2ccc3c(O)c(NC(=O)c4ccc(O)c(CC=C(C)C)c4)c(=O)oc3c2C)OC1(C)C,IC50,second compound 0.0316 µM,> 10 µM
same,IC50,second compound 0.1 µM,> 10 µM
same,IC50,second compound 0.316 µM,> 10 µM
same,IC50,second compound 1 µM,> 10 µM
same,IC50,second compound 3.16 µM,> 10 µM
same,IC50,second compound 10 µM,> 10 µM
same,"viability, T/C",[1],87.5%
same,"viability, T/C",[2],90.6%
same,"viability, T/C",[3],73.8%
same,"viability, T/C",[4],69.2%
same,"viability, T/C",[5],58.4%
same,"viability, T/C",[6],50.3%
same,"viability, T/C",[7],96%
same,"viability, T/C",[8],89.1%
same,"viability, T/C",[9],80%
same,"viability, T/C",[10],68.9%
same,"viability, T/C",[11],59.7%
same,"viability, T/C",[12],52.1%
same,"viability, T/C",[13],101%
same,"viability, T/C",[14],84.8%
same,"viability, T/C",[15],75.8%
same,"viability, T/C",[16],67.7%
same,"viability, T/C",[17],61.1%
same,"viability, T/C",[18],51.1%
same,"viability, T/C",[19],96.5%
same,"viability, T/C",[20],88%
same,"viability, T/C",[21],75%
same,"viability, T/C",[22],63.9%
same,"viability, T/C",[23],57.4%
same,"viability, T/C",[24],49.8%
same,"viability, T/C",[25],97.2%
same,"viability, T/C",[26],93.9%
same,"viability, T/C",[27],70.4%
same,"viability, T/C",[28],63.9%
same,"viability, T/C",[29],60.6%
same,"viability, T/C",[30],49%
same,"viability, T/C",[31],103%
same,"viability, T/C",[32],92.1%
same,"viability, T/C",[33],73.5%
same,"viability, T/C",[34],67.2%
same,"viability, T/C",[35],64.4%
same,"viability, T/C",[36],49.6%
CC1COCCN1c1cc(C2(O)CC3CCC(C2)O3)c2cnn(-c3ccn[nH]3)c2n1 (stereo unspecified) + COC1C(OC(N)=O)C(O)C(Oc2ccc3c(O)c(NC(=O)c4ccc(O)c(CC=C(C)C)c4)c(=O)oc3c2C)OC1(C)C,IC50,second compound 0.0316 µM,2.58 µM
same,IC50,second compound 0.1 µM,2.62 µM
same,IC50,second compound 0.316 µM,2.08 µM
same,IC50,second compound 1 µM,1.92 µM
same,IC50,second compound 3.16 µM,1.84 µM
same,IC50,second compound 10 µM,1.25 µM
same,"viability, T/C",[1],97%
same,"viability, T/C",[2],89.6%
same,"viability, T/C",[3],67.5%
same,"viability, T/C",[4],58.4%
same,"viability, T/C",[5],48.7%
same,"viability, T/C",[6],45.1%
same,"viability, T/C",[7],95.1%
same,"viability, T/C",[8],86.9%
same,"viability, T/C",[9],68.4%
same,"viability, T/C",[10],58.3%
same,"viability, T/C",[11],46.9%
same,"viability, T/C",[12],46.8%
same,"viability, T/C",[13],99%
same,"viability, T/C",[14],83.1%
same,"viability, T/C",[15],69.9%
same,"viability, T/C",[16],56.8%
same,"viability, T/C",[17],42.2%
same,"viability, T/C",[18],46.3%
same,"viability, T/C",[19],93.6%
same,"viability, T/C",[20],89.5%
same,"viability, T/C",[21],66.5%
same,"viability, T/C",[22],56.1%
same,"viability, T/C",[23],48.2%
same,"viability, T/C",[24],42.4%
same,"viability, T/C",[25],89.2%
same,"viability, T/C",[26],85%
same,"viability, T/C",[27],65.3%
same,"viability, T/C",[28],54.3%
same,"viability, T/C",[29],47.9%
same,"viability, T/C",[30],45.5%
same,"viability, T/C",[31],89.1%
same,"viability, T/C",[32],87.4%
same,"viability, T/C",[33],66.4%
same,"viability, T/C",[34],52.5%
same,"viability, T/C",[35],46.7%
same,"viability, T/C",[36],44.8%
CCc1cc2c(N3CCc4c(cc(Cn5ccnc5)cc4-c4cn(C)nc4C(F)(F)F)C3=O)cc(C)nc2c(OC)n1 + COC1C(OC(N)=O)C(O)C(Oc2ccc3c(O)c(NC(=O)c4ccc(O)c(CC=C(C)C)c4)c(=O)oc3c2C)OC1(C)C,IC50,second compound 0.0316 µM,> 10 µM
same,IC50,second compound 0.1 µM,> 10 µM
same,IC50,second compound 0.316 µM,> 10 µM
same,IC50,second compound 1 µM,> 10 µM
same,IC50,second compound 3.16 µM,> 10 µM
same,IC50,second compound 10 µM,> 10 µM
same,"viability, T/C",[1],104%
same,"viability, T/C",[2],103%
same,"viability, T/C",[3],98.8%
same,"viability, T/C",[4],102%
same,"viability, T/C",[5],95.4%
same,"viability, T/C",[6],91.4%
same,"viability, T/C",[7],102%
same,"viability, T/C",[8],101%
same,"viability, T/C",[9],91.7%
same,"viability, T/C",[10],95.2%
same,"viability, T/C",[11],92.7%
same,"viability, T/C",[12],94.3%
same,"viability, T/C",[13],95.5%
same,"viability, T/C",[14],93.9%
same,"viability, T/C",[15],102%
same,"viability, T/C",[16],97.7%
same,"viability, T/C",[17],94.9%
same,"viability, T/C",[18],101%
same,"viability, T/C",[19],99.4%
same,"viability, T/C",[20],105%
same,"viability, T/C",[21],103%
same,"viability, T/C",[22],95.7%
same,"viability, T/C",[23],94.3%
same,"viability, T/C",[24],93.3%
same,"viability, T/C",[25],93.1%
same,"viability, T/C",[26],101%
same,"viability, T/C",[27],96.6%
same,"viability, T/C",[28],90.4%
same,"viability, T/C",[29],95.7%
same,"viability, T/C",[30],94.4%
same,"viability, T/C",[31],105%
same,"viability, T/C",[32],94.4%
same,"viability, T/C",[33],93.6%
same,"viability, T/C",[34],91.2%
same,"viability, T/C",[35],95.7%
same,"viability, T/C",[36],83.8%

# Source: PubChem BioAssay AID1963841 (Molecular Pharmacology Branch, DTP, NCI, 2024)
